Experiments:
[1] = Example 13: serum capromorelin and pharmacokinetics; type: in vivo, cats with compromised kidney function
Protocol: The following study was undertaken to assess multiple points. First, the following experiments were conducted to determine if a formulation of capromorelin, when administered either intravenously or subcutaneously, can stimulate appetite in cats with compromised kidney function. Second, the following experiments were conducted to assess the pharmacokinetic profile of capromorelin in the serum of cats with compromised kidney function. Finally, the following experiments were conducted to determine if capromorelin accumulates in the serum after 14 days of treatment that is subcutaneously administered. Sixteen cats with compromised kidney function were acclimatized for the following study. Animals assigned to Group 1 (n=6) received an intravenous administration of a capromorelin formulation (i.e., capromorelin in sterile water) at a dose of 0.75 mg/kg on Day 0 of the experiment. Animals assigned to Group 2 (n=6) received a subcutaneous administration of a capromorelin formulation (2.1% w/v capromorelin, 1% w/v benzyl alcohol, and citrate buffer) daily for 14 days at a dose of 2 mg/kg. Animals assigned to Group 3 (n=4) served as untreated controls. During the study, blood samples were taken from the Group 1 animals at time points 0 (pre-administration), 5 minutes, 10 minutes, 30 minutes, 1 h, 2 h, 4 h, 6 h, 8 h, and 12 h post administration on Day 0. Blood samples were taken from the Group 2 animals at time points 0 (pre-administration), 15 minutes, 30 minutes, 45 minutes, 1 h, 2 h, 4 h, 6 h, 8 h, and 12 h post administration on Day 0 and time points 0, 30 minutes, 1 h, 2 h, 4 h, and 8 h post administration on Day 13. In addition, body weights were collected on study days −7, −1, and 13 (for Groups 2 and 3 only). Diet consumption was also monitored on study days −7 until day 13 for the animals in Groups 2 and 3 only. Referring to FIGS. 116 and 118, the pharmacokinetics of subcutaneously administered capromorelin were also determined. […] In addition, the mean fraction of the dose absorbed was determined by dividing the mean area under the curve (AUC)/dose of the animals in Group 2, which was divided by AUC/dose of the animals in Group 1. In this case, the mean fraction of the dose (F) absorbed is 1.37.

cortisol = test: Example 5: serum cortisol; type: in vivo, Beagle dogs; details: Groups 2-4; mitigated by Day 4, further reduced by Day 7
Protocol: In order to further refine the dosing regimen that would provide an appropriate blood profile of capromorelin and desired results from the perspective of increased food intake and weight gain, an additional series of experiments were conducted. In these experiments, twenty-four adult (male and female) Beagle dogs weighing approximately 9 to 13 kilograms were randomly divided into four groups. Group 1 received a placebo formulation, without any active compound, two times per day; Group 2 received a composition comprising 3 mg/kg of body weight of capromorelin one time per day; Group 3 received a composition comprising 4.5 mg/kg of body weight of capromorelin one time per day; and Group 4 received a composition comprising 3 mg/kg of body weight of capromorelin two times per day. […]
In these experiments, the animals were orally administered the flavored formulation at approximately 8:00 AM and, for Group 4 only, again at 6:00 PM. […] Food consumption was calculated and recorded on Days −7 through Day 7. Baseline food consumption was calculated for each individual dog as the average number of grams of food consumed on Days −3, −2, and −1. The study period food consumption was calculated for each individual dog as the average of Days 1 through 7. […]

IGF-1 = test: Example 12: serum IGF-1; type: in vivo, cats; details: Day 0
Protocol: Similar to some of the other pharmacokinetic analyses conducted in dogs and cats, an additional pharmacokinetic study was conducted in cats to assess capromorelin formulations that allow sufficient drug to circulate to produce appetite stimulation and to define the capromorelin pharmacokinetic profile in cats. Briefly, twelve cats were randomized into Group 1 (six cats) and Group 2 (six cats). Group 1 received an intravenous formulation that included 0.75 mg/kg of capromorelin dissolved in sterile water and Group 2 received a previously tested formulation via oral gavage. Food consumption was determined daily for all cats. Specifically, animals were offered feed at approximately 11:00 AM, with the removal of feed at approximately 3:00 PM. Upon removal of feed, the amount consumed was calculated. […] Initially, the cats were given a seven day acclimation period to adjust to the experimental conditions and feed provided. After the acclimation period, on Day 0, all animals in Group 1 received an intravenous injection of the composition containing a dose of 0.75 mg/kg of capromorelin. On Day 0, the animals in Group 2 received an oral administration of the formulation via gavage at a dose of 3 mg/kg of capromorelin. […]

[2] = Group 1, intravenous 0.75 mg/kg, Day 0
[3] = Group 2, subcutaneous 2 mg/kg daily, Day 13
[4] = Group 2, subcutaneous 2 mg/kg, Day 0

CN1N=C2CCN(C(=O)[C@@H](COCc3ccccc3)NC(=O)C(C)(C)N)C[C@@]2(Cc2ccccc2)C1=O.O=C(O)C(O)C(O)C(=O)O [capromorelin]
serum concentration of capromorelin at the spike [1, 2]: about 397 ng/mL
time post-administration of initial spike of serum capromorelin [1, 2]: about 5 minutes
mean absorption time ([1]; Group 2, subcutaneous 2 mg/kg): 0.4 h
accumulation in the serum after 14 days of treatment ([1]; Group 2, subcutaneous 2 mg/kg daily): does not accumulate
serum concentration of capromorelin at the spike [1, 3]: about 950 ng/mL
time post administration of spike in serum capromorelin [1, 3]: 30 min
serum concentration of capromorelin at the spike [1, 4]: about 833 ng/mL
time post-administration of initial spike of serum capromorelin [1, 4]: about 15 minutes
Cmax ([1]; cat, serum, sc, Group 2, subcutaneous 2 mg/kg, read-out: geometric Cmax): 893 ng/mL
clearance ([1]; cat, serum, Group 1, intravenous 0.75 mg/kg, several of the test animals): 20 mL/min/kg
half-life ([1]; cat, serum, Group 1, intravenous 0.75 mg/kg, read-out: terminal half-life): 40.2 to 54 min
mean fraction of the dose (F) absorbed ([1]; subcutaneous AUC/dose (Group 2) divided by intravenous AUC/dose (Group 1)): 1.37
cortisol in the serum (cortisol): initial increase in cortisol in the serum on Day 1
IGF-1 levels in the serum, Group 1 (IV 0.75 mg/kg) compared to Group 2 (oral 3 mg/kg) (IGF-1): greater increased in IGF-1 levels
